{
  "source": "paper PMC4515243",
  "about": "“Phase 1 pharmacokinetic study of the oral pan-AKT inhibitor MK-2206 in Japanese patients with advanced solid tumors” (Cancer Chemotherapy and Pharmacology, 2015)",
  "test_system": "Japanese patients with advanced solid tumors",
  "experiment": "phase 1 safety and tolerability (DLT, adverse events) in Japanese patients;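 note: toxicities graded by NCI CTCAE version 3.0, treatment given until disease progression or unacceptable toxicity, three to nine patients enrolled per dose level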",
  "key": {"[1]": {"conditions": "60 mg QOD, grade 3 mucosal inflammation"}},
  "excerpt": "Treatment was continued until disease progression or the occurrence of an unacceptable toxicity.\nA minimum of three and up to nine patients were enrolled at each dose level based on the toxicity probability intervals [9].\nAdverse events were graded using the National Cancer Institute Common Terminology Criteria for Adverse Events, version 3.0.",
  "data": [
    {"smiles": "NC1(c2ccc(-c3nc4ccn5c(=O)[nH]nc5c4cc3-c3ccccc3)cc2)CCC1", "note": "[MK-2206]", "values": [
      {"measurement": "Lymphopenia, drug-related adverse event, patients", "setting": "60 mg QOD (n = 9), All grades", "result": 5},
      {"measurement": "Nausea, drug-related adverse event, patients", "setting": "60 mg QOD (n = 9), All grades", "result": 1},
      {"measurement": "Neutropenia, drug-related adverse event, patients", "setting": "60 mg QOD (n = 9), All grades", "result": 2},
      {"measurement": "Palmar-plantar erythrodysaesthesia syndrome, drug-related adverse event, patients", "setting": "60 mg QOD (n = 9), All grades", "result": 1},
      {"measurement": "Pruritus, drug-related adverse event, patients", "setting": "60 mg QOD (n = 9), All grades", "result": 4},
      {"measurement": "Pyrexia, drug-related adverse event, patients", "setting": "60 mg QOD (n = 9), All grades", "result": 7},
      {"measurement": "Rash, drug-related adverse event, patients", "setting": "60 mg QOD (n = 9), All grades", "result": 9},
      {"measurement": "Stomatitis, drug-related adverse event, patients", "setting": "60 mg QOD (n = 9), All grades", "result": 6},
      {"measurement": "Vomiting, drug-related adverse event, patients", "setting": "60 mg QOD (n = 9), All grades", "result": 0},
      {"measurement": "ALT increased, drug-related adverse event, patients", "setting": "60 mg QOD (n = 9), Grades 3–5", "result": 0},
      {"measurement": "Blood creatinine increased, drug-related adverse event, patients", "setting": "60 mg QOD (n = 9), Grades 3–5", "result": 0},
      {"measurement": "Decreased appetite, drug-related adverse event, patients", "setting": "60 mg QOD (n = 9), Grades 3–5", "result": 0},
      {"measurement": "Diarrhea, drug-related adverse event, patients", "setting": "60 mg QOD (n = 9), Grades 3–5", "result": 0},
      {"measurement": "Dry skin, drug-related adverse event, patients", "setting": "60 mg QOD (n = 9), Grades 3–5", "result": 0},
      {"measurement": "Eosinophil count increased, drug-related adverse event, patients", "setting": "60 mg QOD (n = 9), Grades 3–5", "result": 0},
      {"measurement": "Eosinophilia, drug-related adverse event, patients", "setting": "60 mg QOD (n = 9), Grades 3–5", "result": 0},
      {"measurement": "Erythema multiforme, drug-related adverse event, patients", "setting": "60 mg QOD (n = 9), Grades 3–5", "result": 0},
      {"measurement": "Fatigue, drug-related adverse event, patients", "setting": "60 mg QOD (n = 9), Grades 3–5", "result": 0},
      {"measurement": "HbA1C increased, drug-related adverse event, patients", "setting": "60 mg QOD (n = 9), Grades 3–5", "result": 0},
      {"measurement": "Hyperglycemia, drug-related adverse event, patients", "setting": "60 mg QOD (n = 9), Grades 3–5", "result": 0},
      {"measurement": "Hypernatremia, drug-related adverse event, patients", "setting": "60 mg QOD (n = 9), Grades 3–5", "result": 0},
      {"measurement": "Hypoalbuminemia, drug-related adverse event, patients", "setting": "60 mg QOD (n = 9), Grades 3–5", "result": 0},
      {"measurement": "Hypokalemia, drug-related adverse event, patients", "setting": "60 mg QOD (n = 9), Grades 3–5", "result": 0},
      {"measurement": "Insulin c-peptide increased, drug-related adverse event, patients", "setting": "60 mg QOD (n = 9), Grades 3–5", "result": 0},
      {"measurement": "Leukopenia, drug-related adverse event, patients", "setting": "60 mg QOD (n = 9), Grades 3–5", "result": 0},
      {"measurement": "Localized edema, drug-related adverse event, patients", "setting": "60 mg QOD (n = 9), Grades 3–5", "result": 0},
      {"measurement": "Lymphopenia, drug-related adverse event, patients", "setting": "60 mg QOD (n = 9), Grades 3–5", "result": 2},
      {"measurement": "Nausea, drug-related adverse event, patients", "setting": "60 mg QOD (n = 9), Grades 3–5", "result": 0},
      {"measurement": "Neutropenia, drug-related adverse event, patients", "setting": "60 mg QOD (n = 9), Grades 3–5", "result": 0},
      {"measurement": "Palmar-plantar erythrodysaesthesia syndrome, drug-related adverse event, patients", "setting": "60 mg QOD (n = 9), Grades 3–5", "result": 0},
      {"measurement": "Pruritus, drug-related adverse event, patients", "setting": "60 mg QOD (n = 9), Grades 3–5", "result": 0},
      {"measurement": "Pyrexia, drug-related adverse event, patients", "setting": "60 mg QOD (n = 9), Grades 3–5", "result": 0},
      {"measurement": "Rash, drug-related adverse event, patients", "setting": "60 mg QOD (n = 9), Grades 3–5", "result": 1},
      {"measurement": "Stomatitis, drug-related adverse event, patients", "setting": "60 mg QOD (n = 9), Grades 3–5", "result": 0},
      {"measurement": "Vomiting, drug-related adverse event, patients", "setting": "60 mg QOD (n = 9), Grades 3–5", "result": 0},
      {"measurement": "patients with DLT during Cycle 1", "setting": "[1]", "result": "One of the nine"},
      {"measurement": "time until the onset of the DLT after the start of treatment", "setting": "[1]", "result": 28, "unit": "days"},
      {"measurement": "DLTs during Cycle 1", "setting": "135 mg QW", "result": "no DLTs"},
      {"measurement": "ALT increased, drug-related adverse event, patients", "setting": "135 mg QW (n = 3), All grades", "result": 0},
      {"measurement": "Blood creatinine increased, drug-related adverse event, patients", "setting": "135 mg QW (n = 3), All grades", "result": 0},
      {"measurement": "Decreased appetite, drug-related adverse event, patients", "setting": "135 mg QW (n = 3), All grades", "result": 1},
      {"measurement": "Diarrhea, drug-related adverse event, patients", "setting": "135 mg QW (n = 3), All grades", "result": 1},
      {"measurement": "Dry skin, drug-related adverse event, patients", "setting": "135 mg QW (n = 3), All grades", "result": 1},
      {"measurement": "Eosinophil count increased, drug-related adverse event, patients", "setting": "135 mg QW (n = 3), All grades", "result": 2},
      {"measurement": "Eosinophilia, drug-related adverse event, patients", "setting": "135 mg QW (n = 3), All grades", "result": 1},
      {"measurement": "Erythema multiforme, drug-related adverse event, patients", "setting": "135 mg QW (n = 3), All grades", "result": 0},
      {"measurement": "Fatigue, drug-related adverse event, patients", "setting": "135 mg QW (n = 3), All grades", "result": 1},
      {"measurement": "HbA1C increased, drug-related adverse event, patients", "setting": "135 mg QW (n = 3), All grades", "result": 1},
      {"measurement": "Hyperglycemia, drug-related adverse event, patients", "setting": "135 mg QW (n = 3), All grades", "result": 2},
      {"measurement": "Hypernatremia, drug-related adverse event, patients", "setting": "135 mg QW (n = 3), All grades", "result": 0},
      {"measurement": "Hypoalbuminemia, drug-related adverse event, patients", "setting": "135 mg QW (n = 3), All grades", "result": 0},
      {"measurement": "Hypokalemia, drug-related adverse event, patients", "setting": "135 mg QW (n = 3), All grades", "result": 1},
      {"measurement": "Insulin c-peptide increased, drug-related adverse event, patients", "setting": "135 mg QW (n = 3), All grades", "result": 2},
      {"measurement": "Leukopenia, drug-related adverse event, patients", "setting": "135 mg QW (n = 3), All grades", "result": 0},
      {"measurement": "Localized edema, drug-related adverse event, patients", "setting": "135 mg QW (n = 3), All grades", "result": 0},
      {"measurement": "Lymphopenia, drug-related adverse event, patients", "setting": "135 mg QW (n = 3), All grades", "result": 0},
      {"measurement": "Nausea, drug-related adverse event, patients", "setting": "135 mg QW (n = 3), All grades", "result": 1},
      {"measurement": "Neutropenia, drug-related adverse event, patients", "setting": "135 mg QW (n = 3), All grades", "result": 1},
      {"measurement": "Palmar-plantar erythrodysaesthesia syndrome, drug-related adverse event, patients", "setting": "135 mg QW (n = 3), All grades", "result": 0},
      {"measurement": "Pruritus, drug-related adverse event, patients", "setting": "135 mg QW (n = 3), All grades", "result": 0},
      {"measurement": "Pyrexia, drug-related adverse event, patients", "setting": "135 mg QW (n = 3), All grades", "result": 0},
      {"measurement": "Rash, drug-related adverse event, patients", "setting": "135 mg QW (n = 3), All grades", "result": 2},
      {"measurement": "Stomatitis, drug-related adverse event, patients", "setting": "135 mg QW (n = 3), All grades", "result": 0},
      {"measurement": "Vomiting, drug-related adverse event, patients", "setting": "135 mg QW (n = 3), All grades", "result": 1},
      {"measurement": "ALT increased, drug-related adverse event, patients", "setting": "135 mg QW (n = 3), Grades 3–5", "result": 0},
      {"measurement": "Blood creatinine increased, drug-related adverse event, patients", "setting": "135 mg QW (n = 3), Grades 3–5", "result": 0},
      {"measurement": "Decreased appetite, drug-related adverse event, patients", "setting": "135 mg QW (n = 3), Grades 3–5", "result": 0},
      {"measurement": "Diarrhea, drug-related adverse event, patients", "setting": "135 mg QW (n = 3), Grades 3–5", "result": 0},
      {"measurement": "Dry skin, drug-related adverse event, patients", "setting": "135 mg QW (n = 3), Grades 3–5", "result": 0},
      {"measurement": "Eosinophil count increased, drug-related adverse event, patients", "setting": "135 mg QW (n = 3), Grades 3–5", "result": 0}
    ]}
  ]
}
